Consider eleven compounds from ChEMBL document CHEMBL1201862, “PubChem BioAssay data set” (2004).

Holding throughout (assay): DTP human tumour cell line panel, 48 h
Experiment [1] relates to 786-0.
For experiment [2], the system named is BT-549.
The subject of experiment [3] is COLO 205.
The subject of experiment [4] is HCC 2998.
Experiment [5] relates to HL-60.
The test system of experiment [6] is HOP-92.
The test system of experiment [7] is IGROV-1.
The subject of experiment [8] is MCF7.
Experiment [9] relates to MDA-MB-231.
For experiment [10], the system named is NCI-H522.
Experiment [11] has as its system OVCAR-4.
Experiment [12] deals with OVCAR-8.
Experiment [13] has as its system RPMI-8226.
Experiment [14] concerns RXF 393.
Experiment [15] relates to SF-539.
Experiment [16] deals with SNB-19.
Experiment [17] deals with UACC-257.
Experiment [18] concerns UO-31.
For experiment [19], the system named is CCRF-CEM.

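Protocol summary: plate cells (96-well), add compound at 5 concentrations, incubate 48 h, interpolate endpoints linearly. Abbreviation: GI50, concentration required for 50% inhibition of growth.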 The source made the active and inactive calls. Cut-off read from the data, not from the text of the source: active = GI50 up to about 1.1 µM and inactive = higher. A value given as a limit tells only on which side of the number the result lay.

The term GI50 denotes the concentration that inhibits growth by half. On to `O=C(O)C(Oc1nc(S)nc(S)n1)(c1ccc(Cl)cc1)c1ccc(Cl)cc1`, for which the GI50 is > 100 µM (inactive) in experiment [1]; > 100 µM (inactive) in experiment [2]; > 100 µM (inactive) in [3]; 92.7 µM (inactive) in [4]; > 100 µM (inactive) in [5]; > 100 µM (inactive) in experiment [6]. Further, the GI50 in experiment [7], in [8], in experiment [9], in experiment [10], in [11] and in experiment [12] was > 100 µM (inactive) each time. For the same compound, the GI50 in [13], in experiment [14], in [15], in [16], in experiment [17] and in experiment [18] was > 100 µM (inactive) each time.
With `O=C(Nc1ccc2nc(-c3ccccc3)cn2c1)Oc1ccccc1`, the GI50 in experiment [1] was 91 µM (inactive); in experiment [2] it was > 100 µM (inactive); in [19], 39.7 µM (inactive); in experiment [3] it was 48.6 µM (inactive); in [4], 25.2 µM (inactive); in experiment [5], 30.9 µM (inactive). The GI50 in experiment [6] is > 100 µM (inactive); in experiment [7] it was 57.3 µM (inactive); in [8], 35.4 µM (inactive); in experiment [9], > 100 µM (inactive); in experiment [10] it was 20.2 µM (inactive); in [11], 78.3 µM (inactive). The GI50 in experiment [12] is 59.7 µM (inactive); in experiment [14] it was 0.893 µM (active); in experiment [16], 73.6 µM (inactive); in [17] it was 36.1 µM (inactive); in [18] it was > 100 µM (inactive).
With `COc1ccc(C2Oc3ccc(Cl)cc3C=C2[N+](=O)[O-])cc1OC` (stereo not given), the GI50 in experiment [1] is 0.388 µM (active); in experiment [2] it was 1.15 µM (inactive); in experiment [19], 0.0413 µM (active); in experiment [3] it was 1.16 µM (inactive); in experiment [4] it was 1.77 µM (inactive); in [5] it was 0.204 µM (active). In addition, the GI50 in experiment [6] is 1.88 µM (inactive); in experiment [7], 1.56 µM (inactive); in experiment [8], 0.776 µM (active); in experiment [9], 1.27 µM (inactive); in experiment [10], 1.05 µM (active); in experiment [11], 1.93 µM (inactive). The GI50 in experiment [12] is 1.12 µM (active); in experiment [13], 0.229 µM (active); in experiment [14], 1.59 µM (inactive); in [15] it was 1.55 µM (inactive); in [16] it was 1.92 µM (inactive); in experiment [17], 1.41 µM (inactive). In addition, the GI50 in [18] is 2 µM (inactive).
For `O=S1(=O)NC2CCC3NS(=O)(=O)NC4CCC(N1)N4S(=O)(=O)N23` (stereo not given), the GI50 in [1], in [2], in experiment [3], in experiment [4], in experiment [5] and in experiment [6] was > 100 µM (inactive) each time. Besides, the GI50 in experiment [7], in experiment [8], in [9], in experiment [10], in [11] and in [12] was > 100 µM (inactive) throughout. Further, the GI50 in [13], in experiment [14], in experiment [15], in [16], in experiment [17] and in [18] was > 100 µM (inactive) each time.
As for `CCC[C@H](C)C[C@H](C)C[C@H](C)/C=C(\C)[C@@H](O)[C@@H](C)C(=O)CC`, the GI50 was 20.1 µM (inactive) in experiment [1]; 23.4 µM (inactive) in [2]; 24.3 µM (inactive) in [19]; 17 µM (inactive) in experiment [4]; 17.9 µM (inactive) in experiment [5]; 20.8 µM (inactive) in [6]. Besides, the GI50 in experiment [7] was 19.3 µM (inactive); in experiment [8], 21.3 µM (inactive); in experiment [9] it was 25.3 µM (inactive); in [10] it was 17.6 µM (inactive); in experiment [11] it was 19.2 µM (inactive); in experiment [12] it was 20.3 µM (inactive). The GI50 in [13] was 23.2 µM (inactive); in [14] it was 20.7 µM (inactive); in experiment [15] it was 21 µM (inactive); in experiment [16] it was 20.3 µM (inactive); in experiment [17], 20.1 µM (inactive); in [18], 23 µM (inactive).
On to `COc1cc(N(CCC#N)CCC#N)ccc1C(=N/NC(=O)c1cc(Br)ccc1O)/N=N/c1ccc(C)cc1`, for which the GI50 is 32.1 µM (inactive) in experiment [1]; 18 µM (inactive) in experiment [2]; 4.5 µM (inactive) in [19]; 15.7 µM (inactive) in experiment [3]; 19.7 µM (inactive) in experiment [4]; 15.4 µM (inactive) in experiment [5]. Also, the GI50 in experiment [6] was 20.8 µM (inactive); in experiment [7], 4.32 µM (inactive); in experiment [8], 17.4 µM (inactive); in experiment [9], 15.5 µM (inactive); in experiment [10], 18 µM (inactive); in [11], 18.4 µM (inactive). In addition, the GI50 in experiment [12] was 22.8 µM (inactive); in experiment [13] it was 22.2 µM (inactive); in experiment [14] it was 19.3 µM (inactive); in [15] it was 29 µM (inactive); in [16] it was 25.6 µM (inactive); in [17], 25.1 µM (inactive). Further, the GI50 in experiment [18] was 18.5 µM (inactive).
For `CC1(C)OC1CC/C(=C/CBr)CBr` (stereo not given), the GI50 in experiment [1] was 15.4 µM (inactive); in experiment [2], 16.7 µM (inactive); in [19] it was 8.17 µM (inactive); in [3], 15.9 µM (inactive); in experiment [4], 16 µM (inactive); in experiment [5], 4.92 µM (inactive). Also, the GI50 in [6] is 15.4 µM (inactive); in experiment [7], 13.8 µM (inactive); in experiment [8], 15 µM (inactive); in [9], 15.7 µM (inactive); in [10] it was 10.3 µM (inactive); in [11], 17 µM (inactive). Further, the GI50 in [13] was 12.9 µM (inactive); in experiment [14], 17 µM (inactive); in experiment [15], 18.1 µM (inactive); in [16], 15.2 µM (inactive); in experiment [17], 14.9 µM (inactive); in [18], 14.4 µM (inactive).
With `Clc1ccc(Nc2nnc(CNc3ccc(-c4nnc(Nc5ccc(Cl)cc5)s4)cc3)s2)cc1`, the GI50 in [1] is 24.2 µM (inactive); in experiment [2] it was 71.9 µM (inactive); in experiment [3] it was 20.2 µM (inactive); in experiment [4] it was 13.4 µM (inactive); in experiment [6], 74.6 µM (inactive); in [7], 41.2 µM (inactive). Besides, the GI50 in experiment [8] was 17.9 µM (inactive); in experiment [9] it was 25.8 µM (inactive); in experiment [10] it was 12.8 µM (inactive); in experiment [11], 27.5 µM (inactive); in experiment [13], 18.4 µM (inactive); in experiment [14] it was 35.8 µM (inactive). Besides, the values for the GI50 in experiment [16], in experiment [17] and in experiment [18] were 30.1 µM (inactive), 34 µM (inactive) and 4.68 µM (inactive), respectively.
In the case of `CC1=C(C)C(=O)C(C2=C(C3=CC(=O)C(C)=C(C)C3=O)C(=O)C(C)=C(C)C2=O)=CC1=O`, the GI50 was 5.06 µM (inactive) in experiment [1]; 10 µM (inactive) in experiment [2]; > 100 µM (inactive) in [19]; 2.89 µM (inactive) in experiment [3]; 15.2 µM (inactive) in experiment [4]; > 100 µM (inactive) in experiment [5]. Moreover, the GI50 in [6] is 0.61 µM (active); in experiment [7], 10.9 µM (inactive); in [8] it was 2.67 µM (inactive); in experiment [9], 2.07 µM (inactive); in experiment [10], 1.95 µM (inactive); in experiment [11], 1.79 µM (inactive). The GI50 was 4.41 µM (inactive) in experiment [12]; 1.83 µM (inactive) in [14]; 2.17 µM (inactive) in experiment [15]; > 56.8 µM (inactive) in experiment [16]; 13.3 µM (inactive) in experiment [17]; 4.59 µM (inactive) in experiment [18].
Consider `COc1cccc(NC(=O)c2c(SC)c(C#N)c(=O)n(N)c2N)c1`, for which the GI50 in [1] was 28.6 µM (inactive); in experiment [2], 61.8 µM (inactive); in experiment [19], 35.2 µM (inactive); in [3], > 100 µM (inactive); in [4], > 100 µM (inactive); in [6], 47.4 µM (inactive). The GI50 in experiment [7] is > 100 µM (inactive); in experiment [8] it was > 100 µM (inactive); in [9] it was 95.7 µM (inactive); in experiment [10], 42.3 µM (inactive); in experiment [11] it was 40.9 µM (inactive); in experiment [12], 47.9 µM (inactive). In addition, the GI50 in experiment [14] was > 100 µM (inactive); in experiment [15], 66.4 µM (inactive); in [16] it was 4.52 µM (inactive); in [17], > 100 µM (inactive).
For the compound `COc1cc2cc[n+](C)c(Cc3ccc(Oc4cc(Cc5c6cc(OC)c(OC)cc6cc[n+]5C)ccc4OC)cc3)c2cc1OC`, the GI50 in experiment [1] is > 100 µM (inactive); in experiment [2] it was > 100 µM (inactive); in experiment [19], > 100 µM (inactive); in experiment [3] it was > 100 µM (inactive); in [4], > 100 µM (inactive); in experiment [5], 45.2 µM (inactive). The GI50 in experiment [6], in experiment [7], in experiment [8], in [9], in experiment [10] and in experiment [11] was > 100 µM (inactive) in each case. Further, the GI50 in experiment [12], in experiment [13], in experiment [14], in experiment [15], in experiment [16] and in [17] was > 100 µM (inactive) each time. Further, the GI50 in experiment [18] is > 100 µM (inactive).
